Source: patent publication US20260152503A1, “SPIROBICYCLIC COMPOUNDS” (ACERAND THERAPEUTICS (HONG KONG) LIMITED, priority 2022, published 2026)

Key:
Type in all cases: cell-based
FGFR2 = target: T1, FGFR2 (Homo sapiens, UniProt P21802, K310R/N549K); assay: pERK potency assay (In Cell ELISA), AN3CA cells; details: for IC50: pERK, AN3CA (FGFR2/k310R, N549K) cells, 3 hours; for FGFR1 IC50/FGFR2 IC50 / FGFR3 IC50/FGFR2 IC50: selectivity ratio, pERK potency; for FGFR1 IC50/FGFR2 IC50: FGFR2 relative to FGFR1; for FGFR3 IC50/FGFR2 IC50: FGFR2 relative to FGFR3
T1 construct: in FGFR aberrations of AN3CA (FGFR2/k310R, N549K); host or cells: AN3CA
T1 sequence (P21802 22-821 K310R/N549K): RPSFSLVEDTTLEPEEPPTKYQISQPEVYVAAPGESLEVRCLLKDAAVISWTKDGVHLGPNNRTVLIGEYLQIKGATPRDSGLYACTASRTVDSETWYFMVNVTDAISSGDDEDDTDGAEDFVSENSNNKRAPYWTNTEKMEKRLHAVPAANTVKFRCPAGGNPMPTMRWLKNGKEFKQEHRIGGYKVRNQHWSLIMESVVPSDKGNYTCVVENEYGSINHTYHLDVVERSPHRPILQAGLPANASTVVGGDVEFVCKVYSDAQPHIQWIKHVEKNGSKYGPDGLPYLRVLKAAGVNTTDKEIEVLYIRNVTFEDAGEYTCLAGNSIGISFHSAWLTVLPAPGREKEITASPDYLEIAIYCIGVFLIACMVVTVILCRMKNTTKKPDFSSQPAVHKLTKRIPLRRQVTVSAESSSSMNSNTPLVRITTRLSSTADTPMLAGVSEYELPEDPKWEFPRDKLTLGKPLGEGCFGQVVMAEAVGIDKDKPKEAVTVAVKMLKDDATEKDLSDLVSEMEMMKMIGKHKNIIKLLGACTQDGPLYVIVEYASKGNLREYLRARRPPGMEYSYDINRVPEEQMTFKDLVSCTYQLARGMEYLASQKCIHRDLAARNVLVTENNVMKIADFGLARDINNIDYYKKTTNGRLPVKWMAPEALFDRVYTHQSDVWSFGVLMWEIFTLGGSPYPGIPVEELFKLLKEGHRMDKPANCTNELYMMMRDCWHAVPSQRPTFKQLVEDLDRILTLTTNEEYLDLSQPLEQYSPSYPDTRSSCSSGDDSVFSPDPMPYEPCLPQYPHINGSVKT
Text: (§1) The purpose of this assay is to measure the ability of test compounds to inhibit FGFR mediated downstream signaling cascades, i.e., ERK phosphorylation in cells with FGFR aberrations. FGFR aberrations become constitutively active and thus induces cascades of cellular signaling events that result in increased phosphorylation of ERK at Threonine 202 and Tyrosine 204 (pERK). The procedure called In Cell ELISA described below measures the level of cellular pERK in response to FGFR specific inhibitor compounds in FGFR aberrations of AN3CA (FGFR2/k310R, N549K), DMS114 (FGFR1 amplification), RT112 (FGFR3 overexpression/FGFR3-TACC3 fusion) and Hep3B (FGF19 amplification) cells. AN3CA, DMS114 and Hep3B cells are from ATCC. RT112 cells are from Sigma. DMS114 cells are grown and maintained using RPMI-1640 medium supplemented with 10% heat-inactivated fetal bovine serum. AN3CA, Hep3B and RT112 cells are grown and maintained using DMEM supplemented with 10% heat-inactivated fetal bovine serum. On the day before test compound addition, cells are plated in poly-D-lysine coated 96-well cell culture plates (Corning® BioCoat® Cat #356640) at 40000 cells/well/100 μL and grown overnight in a 37° C., 5% CO2 incubator. Test compounds are prepared with 4-fold serial dilutions in DMSO, with a top concentration of 10 μM. On the day of the assay, 50 μL of test compound diluted in media was added to each well of cell culture plate with the final concentration of compounds spanning from 0.000038 μM to 10 μM. After compound addition, cells are incubated for 3 hours at 37° C., 5% CO2 and then the culture medium is removed. Cells are fixed with 4% formaldehyde in phosphate-buffered saline (PBS) and incubated at RT for 20 min. The plate is then washed three times with PBST (PBS with 0.05% tween-20), followed by the incubation with 100 μL of pre-cooled methanol at −20° C. for 20 min. After incubation, methanol is removed, and the plate is washed once with PBST. Cells are permeabilized with 100 µL/well of 0.1% Triton X-100 in PBS at RT for 20 min and then quenched with quenching buffer (PBST containing 1% H2O2 and 0.1% sodium azide) for 20 min at RT with gentle shaking. After washing once with PBST, blocking buffer (250 ul/well, Pierce™ Protein-Free-PBS Blocking Buffer, Cat #37572) was then added to the cells for 1-h incubation at RT, followed by anti-pERK antibody (cell signaling, 1:1000 dilution in 5% BSA in PBST) incubation overnight at 4° C. and secondary antibody-HRP (Jackson immunoresearch, 1:3000 dilution in 5% BSA in PBST) incubation at RT for 1 h. PBST wash is carried out after each step three times. Before the addition of the substrate (Advansta ELISABright), the plate is washed with PBS twice to remove detergent residues. Cellular pERK level is determined using the microplate reader (Biotek Synergy H1) to detect the chemiluminescence signal. IC50 is determined by fitting a 4-parameter sigmoidal concentration-response model. FGFR wild type cells (H1975, PC-9 and AGS) are used to serve as negative control (FGFR selectivity) with the same assay procedures described above.

FGFR1 = target: T2, FGFR1 (Homo sapiens, UniProt P11362); assay: pERK potency assay (In Cell ELISA), DMS114 cells; details: DMS114 (FGFR1 amplification) cells, 3 hours
T2 construct: DMS114 (FGFR1 amplification); host or cells: DMS114
T2 sequence (P11362 22-822): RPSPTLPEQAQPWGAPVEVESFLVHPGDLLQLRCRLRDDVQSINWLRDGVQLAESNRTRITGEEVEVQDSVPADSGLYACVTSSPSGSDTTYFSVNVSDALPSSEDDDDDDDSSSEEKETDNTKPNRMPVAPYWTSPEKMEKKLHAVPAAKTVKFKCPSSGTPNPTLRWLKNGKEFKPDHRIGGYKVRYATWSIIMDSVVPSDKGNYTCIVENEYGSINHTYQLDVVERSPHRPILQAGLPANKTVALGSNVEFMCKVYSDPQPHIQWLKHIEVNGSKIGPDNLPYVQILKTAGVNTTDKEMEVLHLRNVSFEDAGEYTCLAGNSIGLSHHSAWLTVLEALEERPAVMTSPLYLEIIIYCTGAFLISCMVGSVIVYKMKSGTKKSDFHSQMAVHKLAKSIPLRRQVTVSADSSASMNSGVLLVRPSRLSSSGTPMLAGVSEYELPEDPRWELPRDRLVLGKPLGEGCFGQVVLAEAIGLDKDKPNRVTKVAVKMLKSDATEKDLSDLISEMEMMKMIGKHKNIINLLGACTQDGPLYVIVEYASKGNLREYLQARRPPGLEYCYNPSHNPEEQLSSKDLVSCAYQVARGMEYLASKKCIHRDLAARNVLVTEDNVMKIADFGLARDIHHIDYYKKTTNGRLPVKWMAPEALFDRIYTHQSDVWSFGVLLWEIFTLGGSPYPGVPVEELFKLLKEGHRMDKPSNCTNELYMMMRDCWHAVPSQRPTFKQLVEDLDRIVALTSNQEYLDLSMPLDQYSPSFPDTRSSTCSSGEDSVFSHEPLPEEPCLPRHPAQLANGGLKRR
Text: as §1

FGFR3 = target: T3, FGFR3 (Homo sapiens, UniProt P22607); assay: pERK potency assay (In Cell ELISA), RT112 cells; details: RT112 (FGFR3 overexpression/FGFR3-TACC3 fusion) cells, 3 hours
T3 construct: RT112 (FGFR3 overexpression/FGFR3-TACC3 fusion); host or cells: RT112; the other entry of the earlier key: TACC3 (Q9Y6A5, Transforming acidic coiled-coil-containing protein 3)
Text: as §1

IC50 (FGFR2)	IC50 (FGFR1)	IC50 (FGFR3)	Structure (SMILES)	FGFR1 IC50/FGFR2 IC50 (FGFR2)	FGFR3 IC50/FGFR2 IC50 (FGFR2)
10 to 30 nM	> 100 nM	> 100 nM	C=CC(=O)N1CCC2(CC=C(c3c(-c4nccc(C)n4)c4c(N)ncnc4n3C)CC2)CC1 [Example 35, 1-(9-(4-amino-7-methyl-5-(4-methylpyrimidin-2-yl)-7H-pyrrolo[2,3-d]pyrimidin-6-yl)-3-azaspiro[5.5]undec-8-en-3-yl)prop-2-en-1-one]	F (a selectivity ratio greater than 50 but less than or equal to 150)	G (a selectivity ratio greater than 150 but less than or equal to 500)
1 to 10 nM	30 to 100 nM	> 100 nM	C=CC(=O)N1CCC2(CC=C(c3c(-c4ccc(OC5CC5)cc4)c4c(N)ncnc4n3C(F)F)CC2)CC1 [Example 36, 1-(9-(4-amino-5-(4-cyclopropoxyphenyl)-7-(difluoromethyl)-7H-pyrrolo[2,3-d]pyrimidin-6-yl)-3-azaspiro[5.5]undec-8-en-3-yl)prop-2-en-1-one]	F (a selectivity ratio greater than 50 but less than or equal to 150)	G (a selectivity ratio greater than 150 but less than or equal to 500)
10 to 30 nM	> 100 nM	> 100 nM	C=CC(=O)N1CCC2(CC=C(c3c(-c4ccc(C#N)nc4)c4c(N)ncnc4n3C(F)F)CC2)CC1 [Example 37, 5-(6-(3-acryloyl-3-azaspiro[5.5]undec-8-en-9-yl)-4-amino-7-(difluoromethyl)-7H-pyrrolo[2,3-d]pyrimidin-5-yl)picolinonitrile]	G (a selectivity ratio greater than 150 but less than or equal to 500)	G (a selectivity ratio greater than 150 but less than or equal to 500)
≤ 1 nM	30 to 100 nM	30 to 100 nM	[2H]C([2H])([2H])Oc1ccc(-c2c(C3=C(F)CC4(CC3)CCN(C(=O)C=C)CC4)n(C)c3ncnc(N)c23)cc1 [Example 38, 1-(9-(4-amino-5-(4-(methoxy-d3)phenyl)-7-methyl-7H-pyrrolo[2,3-d]pyrimidin-6-yl)-8-fluoro-3-azaspiro[5.5]undec-8-en-3-yl)prop-2-en-1-one]	F (a selectivity ratio greater than 50 but less than or equal to 150)	F (a selectivity ratio greater than 50 but less than or equal to 150)
1 to 10 nM	> 100 nM	> 100 nM	C=CC(=O)N1CCC2(CC=C(c3c(-c4ccc(OC)nc4)c4c(N)ncnc4n3C)CC2)CC1(C)C (stereo not shown) [Example 40, 1-(9-(4-amino-5-(6-methoxypyridin-3-yl)-7-methyl-7H-pyrrolo[2,3-d]pyrimidin-6-yl)-2,2-dimethyl-3-azaspiro[5.5]undec-8-en-3-yl)prop-2-en-1-one]	G (a selectivity ratio greater than 150 but less than or equal to 500)	I (a selectivity ratio greater than 1000 but less than or equal to 2000)
1 to 10 nM	> 100 nM	> 100 nM	C=CC(=O)N1CCC2(CC=C(c3c(-c4ccc(F)cc4)c4c(N)ncnc4n3C)CO2)CC1 [Example 41, 1-(3-(4-amino-5-(4-fluorophenyl)-7-methyl-7H-pyrrolo[2,3-d]pyrimidin-6-yl)-1-oxa-9-azaspiro[5.5]undec-3-en-9-yl)prop-2-en-1-one]	H (a selectivity ratio greater than 500 but less than or equal to 1000)	H (a selectivity ratio greater than 500 but less than or equal to 1000)
1 to 10 nM	> 100 nM	> 100 nM	C=CC(=O)N1CCC2(CC=C(c3c(-c4ncc(OC5COC5)cn4)c4c(N)ncnc4n3C)CC2)CC1 [Example 46, 1-(9-(4-amino-7-methyl-5-(5-(oxetan-3-yloxy)pyrimidin-2-yl)-7H-pyrrolo[2,3-d]pyrimidin-6-yl)-3-azaspiro[5.5]undec-8-en-3-yl)prop-2-en-1-one]	H (a selectivity ratio greater than 500 but less than or equal to 1000)	J (a selectivity ratio greater than 2000)
1 to 10 nM	> 100 nM	> 100 nM	C=CC(=O)N1CCC2(CC=C(c3c(-c4ncc5c(n4)CCO5)c4c(N)ncnc4n3C)CC2)CC1 [Example 48, 1-(9-(4-amino-5-(6,7-dihydrofuro[3,2-d]pyrimidin-2-yl)-7-methyl-7H-pyrrolo[2,3-d]pyrimidin-6-yl)-3-azaspiro[5.5]undec-8-en-3-yl)prop-2-en-1-one]	H (a selectivity ratio greater than 500 but less than or equal to 1000)	J (a selectivity ratio greater than 2000)
30 to 100 nM	> 100 nM	> 100 nM	C=CC(=O)N1CCC2(CC=C(c3c(-c4ncccc4F)c4c(N)ncnc4n3C)CC2)CC1 [Example 49, 1-(9-(4-amino-5-(3-fluoropyridin-2-yl)-7-methyl-7H-pyrrolo[2,3-d]pyrimidin-6-yl)-3-azaspiro[5.5]undec-8-en-3-yl)prop-2-en-1-one]	G (a selectivity ratio greater than 150 but less than or equal to 500)	G (a selectivity ratio greater than 150 but less than or equal to 500)
> 100 nM	> 100 nM	> 100 nM	C=CC(=O)N1CCC2(CC=C(c3c(-c4ncco4)c4c(N)ncnc4n3C)CC2)CC1 [Example 53, 1-(9-(4-amino-7-methyl-5-(oxazol-2-yl)-7H-pyrrolo[2,3-d]pyrimidin-6-yl)-3-azaspiro[5.5]undec-8-en-3-yl)prop-2-en-1-one]	–	–
1 to 10 nM	> 100 nM	> 100 nM	C=CC(=O)N1CCC2(CC=C(c3c(-c4ncccn4)c4c(N)ncnc4n3CCO)CC2)CC1 [Example 54, 1-(9-(4-amino-7-(2-hydroxyethyl)-5-(pyrimidin-2-yl)-7H-pyrrolo[2,3-d]pyrimidin-6-yl)-3-azaspiro[5.5]undec-8-en-3-yl)prop-2-en-1-one]	F (a selectivity ratio greater than 50 but less than or equal to 150)	G (a selectivity ratio greater than 150 but less than or equal to 500)
≤ 1 nM	10 to 30 nM	30 to 100 nM	C=CC(=O)N1CCC2(CC=C(c3c(C4COC4)c4c(N)ncnc4n3C)CC2)CC1 [Example 55, 1-(9-(4-amino-7-methyl-5-(oxetan-3-yl)-7H-pyrrolo[2,3-d]pyrimidin-6-yl)-3-azaspiro[5.5]undec-8-en-3-yl)prop-2-en-1-one]	–	F (a selectivity ratio greater than 50 but less than or equal to 150)
10 to 30 nM	> 100 nM	> 100 nM	C=CC(=O)N1CCC2(CC=C(c3c(-c4ccncn4)c4c(N)ncnc4n3C)CC2)CC1 [Example 60, 1-(9-(4-amino-7-methyl-5-(pyrimidin-4-yl)-7H-pyrrolo[2,3-d]pyrimidin-6-yl)-3-azaspiro[5.5]undec-8-en-3-yl)prop-2-en-1-one]	–	F (a selectivity ratio greater than 50 but less than or equal to 150)
